In ChEMBL document CHEMBL1136289, “Synthesis and biological evaluation of thymine nucleosides fused with 3',4'-tetrahydrofuran ring” (Bioorg Med Chem Lett, 2003):
In brackets after ≈: the same amount, converted by molar mass.

Tests used:
Conditions in all cases: Homo sapiens
HeLa [1] = experiment: Compound was evaluated for its inhibitory effect on the replication of vesicular stomatitis virus (VSV) in HeLa cells; format: functional, cell-based
HeLa [2] = experiment: Compound was evaluated for its inhibitory effect on the replication of encephalomyocarditis virus (EMCV) in HeLa cells; format: functional, cell-based
MT4 [3] = experiment: Compound was evaluated for its inhibitory effect on the replication of HIV-2 (ROD) in MT-4 cells; format: functional, cell-based
HeLa [4] = experiment: Compound was evaluated for its inhibitory effect on the replication of Coxsackie virus B3 (Cox. B3) in HeLa cells; format: functional, cell-based
MT4 [5] = experiment: Compound was evaluated for its inhibitory effect on the replication of HIV-1(IIIB) in MT-4 cells; format: functional, cell-based
HeLa [6] = experiment: Cytotoxicity against HeLa cells; format: functional
MT4 [7] = experiment: Cytotoxicity against MT-4 cells; format: functional

**Q.** `Cc1cn(C2CC3COCC3(CO)O2)c(=O)[nH]c1=O` (stereo unspecified) was tested. Which EC50 (HeLa [1]) did it give?
**A.** 3.45 µg/mL (≈ 12.9 µM)

**Q.** What about the EC50 (HeLa [2]) of the same molecule?
**A.** > 4.11 µg/mL

**Q.** And the EC50 (MT4 [3])?
**A.** > 100 µg/mL

**Q.** And the EC50 (HeLa [4])?
**A.** > 4.11 µg/mL

**Q.** What about the EC50 (MT4 [5]) of the same molecule?
**A.** > 100 µg/mL

**Q.** What about the CC50 (HeLa [6]) of the same molecule?
**A.** 4.11 µg/mL (≈ 15.3 µM)

**Q.** And the CC50 (MT4 [7])?
**A.** < 0.8 µg/mL

**Q.** With `NC(=O)c1ncn([C@@H]2O[C@H](CO)[C@@H](O)[C@H]2O)n1` [RIBAVIRIN] as the molecule, how does the EC50 (HeLa [1]) read?
**A.** 14.4 µg/mL (≈ 59 µM)

**Q.** What about the EC50 (HeLa [2]) of the same molecule?
**A.** 20.9 µg/mL (≈ 85.7 µM)

**Q.** What about the EC50 (HeLa [4]) of the same molecule?
**A.** 181 µg/mL (≈ 743 µM)

**Q.** What about the CC50 (HeLa [6]) of the same molecule?
**A.** 300 µg/mL (≈ 1230 µM)

**Q.** Which EC50 (MT4 [3]) does the source give for `Cc1cn([C@H]2C[C@H](N=[N+]=[N-])[C@@H](CO)O2)c(=O)[nH]c1=O` [ZIDOVUDINE] here?
**A.** 0.01 µg/mL (≈ 0.0374 µM)

**Q.** And the EC50 (MT4 [5])?
**A.** 0.0012 µg/mL (≈ 0.00449 µM)

**Q.** What about the CC50 (MT4 [7]) of the same molecule?
**A.** 1.64 µg/mL (≈ 6.14 µM)

**Q.** For `Cc1cn(C2OC3(CO)COCC3C2O)c(=O)[nH]c1=O` (stereo unspecified), which EC50 (HeLa [1]) is on record?
**A.** 100 µg/mL (≈ 352 µM)

**Q.** What about the EC50 (HeLa [2]) of the same molecule?
**A.** 100 µg/mL (≈ 352 µM)

**Q.** What about the EC50 (MT4 [3]) of the same molecule?
**A.** > 0.54 µg/mL

**Q.** What about the EC50 (HeLa [4]) of the same molecule?
**A.** 100 µg/mL (≈ 352 µM)

**Q.** What about the EC50 (MT4 [5]) of the same molecule?
**A.** 95.8 µg/mL (≈ 337 µM)

**Q.** And the CC50 (HeLa [6])?
**A.** 100 µg/mL (≈ 352 µM)

**Q.** What about the CC50 (MT4 [7]) of the same molecule?
**A.** 0.54 µg/mL (≈ 1.9 µM)
